This note sets out measurements from PubChem BioAssay (NCI).

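Protocol summary: plate cells (96-well), add compound at 5 concentrations, incubate 48 h, interpolate endpoints linearly. TGI marks complete inhibition of growth.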

Among the test systems are KM12 colon; NCI-H460 lung; SN12C renal; K-562 leukemia; RXF 393 renal; SK-MEL-28 melanoma; NCI/ADR-RES ovarian; HCT-15 colon; SK-OV-3 ovarian; MALME-3M melanoma; SW-620 colon; MOLT-4 leukemia; CAKI-1 renal; RPMI-8226 leukemia; ACHN renal; MDA-MB-435; HOP-62 NSCLC; SNB-19 CNS; SK-MEL-2 melanoma.
Common to all, as to experiment: inhibition of tumour cell growth, NCI panel, 48 h

In the case of `COc1ccc(NC(=O)CSc2nc(C)nc3c2sc(=S)n3-c2ccccc2)cc1`, the TGI with KM12 colon, with NCI-H460 lung, in the experiment on SN12C renal, in the experiment with K-562 leukemia, in the experiment on RXF 393 renal and in the experiment on SK-MEL-28 melanoma was above 10 µM throughout. The TGI in the experiment with NCI/ADR-RES ovarian, in the experiment with HCT-15 colon, with SK-OV-3 ovarian, in the experiment on MALME-3M melanoma, in the experiment on SW-620 colon and with MOLT-4 leukemia was above 10 µM in each case. Also, the TGI in the experiment on CAKI-1 renal, in the experiment on RPMI-8226 leukemia, in the experiment with ACHN renal, in the experiment on MDA-MB-435, in the experiment with HOP-62 NSCLC and in the experiment on SNB-19 CNS was above 10 µM in each case.

For the molecule `COC(=O)c1ccccc1/C=C1\Cc2ccc3c(c2C1=O)CCC3`, the TGI with KM12 colon, in the experiment with NCI-H460 lung, with SN12C renal, with K-562 leukemia, with RXF 393 renal and with SK-MEL-28 melanoma was above 100 µM each time. Moreover, the TGI in the experiment on NCI/ADR-RES ovarian, with HCT-15 colon, with SK-OV-3 ovarian, in the experiment with MALME-3M melanoma, in the experiment on SW-620 colon and in the experiment on MOLT-4 leukemia was above 100 µM throughout. The TGI with CAKI-1 renal, with RPMI-8226 leukemia, with ACHN renal, in the experiment with MDA-MB-435 and in the experiment on HOP-62 NSCLC was above 100 µM each time.

In the case of `CN(C)CCNc1ncnc2nc(-c3ccccc3)c(-c3ccccc3)nc12`, the TGI in the experiment on KM12 colon, with SN12C renal, in the experiment on RXF 393 renal, in the experiment with SK-MEL-28 melanoma, in the experiment on NCI/ADR-RES ovarian and with SK-OV-3 ovarian was above 100 µM each time. For the same molecule, the TGI in the experiment on SK-MEL-2 melanoma is above 100 µM; in the experiment with MALME-3M melanoma, above 100 µM; in the experiment on SW-620 colon, above 100 µM; in the experiment on MOLT-4 leukemia, 76 µM; in the experiment on CAKI-1 renal, above 100 µM; in the experiment on MDA-MB-435, above 100 µM. In the experiment on HOP-62 NSCLC, this molecule gave a TGI above 100 µM.

Regarding `O=S(=O)(N=[Se](=O)(c1ccccc1)c1ccccc1)c1ccccc1`, the TGI in the experiment on KM12 colon, in the experiment with NCI-H460 lung, in the experiment with SN12C renal, with K-562 leukemia, in the experiment on SK-MEL-28 melanoma and in the experiment on NCI/ADR-RES ovarian was above 100 µM in each case. The TGI in the experiment on HCT-15 colon, in the experiment with SK-OV-3 ovarian, in the experiment on SK-MEL-2 melanoma, with SW-620 colon, in the experiment with MOLT-4 leukemia and in the experiment on CAKI-1 renal was above 100 µM in each case. The TGI in the experiment on RPMI-8226 leukemia, in the experiment on ACHN renal, with MDA-MB-435, with HOP-62 NSCLC and in the experiment with SNB-19 CNS was above 100 µM throughout.

In the case of `CC(C)(C)OC(=O)NC(Cc1ccc(OC(C)(C)C)cc1)C(=O)N[C@H]1CC[C@H](C(=O)O)C1` (stereo partly specified), the TGI in the experiment with KM12 colon, in the experiment on NCI-H460 lung, in the experiment on SN12C renal, with K-562 leukemia, in the experiment on SK-MEL-28 melanoma and in the experiment on NCI/ADR-RES ovarian was above 100 µM in each case. The TGI in the experiment with HCT-15 colon, in the experiment on SK-OV-3 ovarian, in the experiment on SK-MEL-2 melanoma, in the experiment with SW-620 colon, with MOLT-4 leukemia and with RPMI-8226 leukemia was above 100 µM throughout. In addition, the TGI with ACHN renal, in the experiment with MDA-MB-435, in the experiment with HOP-62 NSCLC and with SNB-19 CNS was above 100 µM throughout.

For the molecule `CC(=O)Nn1c(Cc2ccc(Cl)cc2)nn(C)c1=O`, the TGI in the experiment on KM12 colon, with NCI-H460 lung, with SN12C renal, with K-562 leukemia, with SK-MEL-28 melanoma and with NCI/ADR-RES ovarian was above 100 µM in each case. The TGI with HCT-15 colon, with SK-OV-3 ovarian, in the experiment with SK-MEL-2 melanoma, with MALME-3M melanoma, with SW-620 colon and with MOLT-4 leukemia was above 100 µM throughout. Moreover, the TGI with CAKI-1 renal, in the experiment on RPMI-8226 leukemia, in the experiment on ACHN renal, in the experiment with MDA-MB-435, in the experiment on HOP-62 NSCLC and in the experiment on SNB-19 CNS was above 100 µM in each case.

For `c1ccc(C2(c3cc4ccccc4[nH]3)OCCO2)nc1`, the TGI with KM12 colon, in the experiment on NCI-H460 lung, in the experiment on RXF 393 renal, in the experiment with SK-MEL-28 melanoma, with NCI/ADR-RES ovarian and in the experiment with HCT-15 colon was above 100 µM throughout. Also, the TGI with SK-OV-3 ovarian, with SK-MEL-2 melanoma, in the experiment on MALME-3M melanoma, in the experiment on SW-620 colon, in the experiment on CAKI-1 renal and with ACHN renal was above 100 µM in each case. The TGI with MDA-MB-435, in the experiment with HOP-62 NSCLC and with SNB-19 CNS was above 100 µM each time.

Turning to `C[n+]1c(-c2ccc(/C=N\Nc3ccnc(N/N=C/c4ccc(-c5cn6ccsc6[n+]5C)cc4)n3)cc2)cn2ccsc21`, the TGI in the experiment on KM12 colon is 84.5 µM; in the experiment with NCI-H460 lung, above 100 µM; in the experiment with SN12C renal, above 100 µM; in the experiment on K-562 leukemia it was above 100 µM; with RXF 393 renal, 56.3 µM; in the experiment on NCI/ADR-RES ovarian, above 100 µM. Besides, the TGI in the experiment with HCT-15 colon was above 100 µM; with SK-OV-3 ovarian it was above 100 µM; in the experiment with MALME-3M melanoma it was 85.4 µM; in the experiment with SW-620 colon, above 100 µM; with MOLT-4 leukemia, above 100 µM; in the experiment with CAKI-1 renal, 80.8 µM. The TGI is above 100 µM in the experiment with RPMI-8226 leukemia; above 100 µM in the experiment with ACHN renal; 6.94 µM in the experiment with MDA-MB-435; 51.6 µM in the experiment with HOP-62 NSCLC; above 100 µM in the experiment with SNB-19 CNS.
